Data reported in US9157105B2, “Biosynthesis of CMP-legionaminic acid from fructose-6-P, and respective pathway intermediates, using novel GDP-linked precursors” (priority 2008, dated 2015).

Tests used:
[1] = molecular target: T1, His6LegG (Cj1328, NDP-sugar hydrolase/2-epimerase) (Campylobacter jejuni subsp. jejuni serotype O:2, UniProt Q0P8T0); assay: His6LegG activity and substrate flexibility (1H NMR, CE); type: biochemical, Campylobacter jejuni 11168
T1 construct: made in house; host or cells: E. coli BL21[DE3]
T1 sequence (Q0P8T0 whole entry): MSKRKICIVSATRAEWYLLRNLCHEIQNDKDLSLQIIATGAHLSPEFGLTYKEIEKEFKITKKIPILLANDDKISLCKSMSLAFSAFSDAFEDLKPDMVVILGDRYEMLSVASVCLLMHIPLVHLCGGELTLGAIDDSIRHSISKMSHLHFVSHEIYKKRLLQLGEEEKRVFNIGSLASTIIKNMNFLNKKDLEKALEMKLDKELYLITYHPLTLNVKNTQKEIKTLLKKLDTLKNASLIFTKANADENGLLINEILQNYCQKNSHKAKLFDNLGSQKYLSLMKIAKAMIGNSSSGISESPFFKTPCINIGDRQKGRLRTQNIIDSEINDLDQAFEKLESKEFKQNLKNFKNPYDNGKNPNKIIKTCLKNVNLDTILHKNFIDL
Method: Enzymatic reactions were performed for 4.5 h at 37° C., and then overnight at 25° C., with approximately 200 μg ml^−1 respective protein concentration using chemicals from Sigma (unless otherwise indicated). GDP-glucosamine biosynthesis. The ‘one-pot’ enzymatic synthesis of GDP-GlcN from Fru-6-P (I→IV) was accomplished using a 3 ml reaction containing His6PtmF, PtmAHis6, PgmLHis6, His6PtmE, 5 mM Fru-6-P (I), 10 mM L-Gln, 1 mM DTT, 5 mM MgCl2, 0.8 U ml^−1 pyrophosphatase, and 2.5 mM GTP in 25 mM Tris pH 7.5. Large-scale enzymatic synthesis of GDP-GlcN (IV) was accomplished using a 12 ml reaction containing 50 mM Tris pH 7.5, 1 mM GTP, 1 mM MgCl2, 0.8 U ml^−1 pyrophosphatase, 1.2 mM GlcN-1-P (III) and approximately 4.8 mg of His6PtmE. The large-scale enzymatic synthesis of GDP-GlcNAc was performed similar to that above, except the scale was increased five-fold and GlcNAc-1-P was used in place of GlcN-1-P (III). Assessment of His6PtmE substrate specificity was accomplished using 9 reactions, 80 μl each, containing 50 mM Tris pH 7.5, 2 mM MgCl2, 50 μg His6PtmE, and various combinations of 10 mM sugar-1-P (GalN-1-P, GlcN-1-P or GlcNAc-1-P) and 0.2 mM NTP (CTP, GTP, or TTP). Conversion of GDP-GlcN to GDP-GlcNAc. The His6GlmU reaction was performed using 1 mM GDP-GlcN (IV), 1.2 mM acetyl-CoA and His6GlmU in 25 mM sodium phosphate pH 7.8, 25 mM NaCl, 10 mM β-mercaptoethanol. In addition, a control reaction was performed containing 1 mM GlcN-1-P (III) instead of IV. Biosynthesis of legionaminic acid from GDP-GlcNAc. The stepwise enzymatic synthesis of intermediates or products was accomplished in 2 stages (V→VI→VII→VIII, and then VIII→IX→X) using 1 mM of V, 0.5 mM NAD, 0.8 mM PLP, 8 mM L-Glu, 1.2 mM acetyl-CoA, 1.2 mM PEP, LegBHis6, His6LegC, His6LegH, His6LegG, and His6LegI as appropriate, in 25 mM sodium phosphate pH 7.3, 25 mM NaCl. Assessment of His6LegG activity involved monitoring the reaction kinetics by ^1H NMR (see NMR spectroscopy) for 75 min using 0.75 mM GDP-2,4-diacetamido-2,4,6-trideoxy-α-D-Glc (VIII), 4 μg His6LegG in 200 μl of 25 mM sodium phosphate pH 7.3, 25 mM NaCl at 25° C. In addition, the substrate flexibility of His6LegG was assessed using a 300 μl reaction containing 40 μg His6LegG, 25 mM sodium phosphate pH 7.3, 25 mM NaCl, and 0.75 mM UDP-2,4-diacetamido-2,4,6-trideoxy-α-D-Glc, with incubation at 37° C. for 1.5 h, and then overnight at 25° C. Biosynthesis of CMP-legionaminic acid. […] Quantification of NDP-sugar preparations was determined using the molar extinction coefficients of CMP (ε260=7,400), GDP (ε260=11,500), TDP (ε260=8,700), and UDP (ε260=10,000). […]

[2] = tested on: LegB (Cj1319, 4,6-dehydratase); assay: LegB C4,6 dehydratase reaction with NDP-sugars; type: biochemical, Campylobacter jejuni 11168
Method: Enzymatic reactions were performed for 4.5 h at 37° C., and then overnight at 25° C., with approximately 200 μg ml^−1 respective protein concentration using chemicals from Sigma (unless otherwise indicated). GDP-glucosamine biosynthesis. The ‘one-pot’ enzymatic synthesis of GDP-GlcN from Fru-6-P (I→IV) was accomplished using a 3 ml reaction containing His6PtmF, PtmAHis6, PgmLHis6, His6PtmE, 5 mM Fru-6-P (I), 10 mM L-Gln, 1 mM DTT, 5 mM MgCl2, 0.8 U ml^−1 pyrophosphatase, and 2.5 mM GTP in 25 mM Tris pH 7.5. Large-scale enzymatic synthesis of GDP-GlcN (IV) was accomplished using a 12 ml reaction containing 50 mM Tris pH 7.5, 1 mM GTP, 1 mM MgCl2, 0.8 U ml^−1 pyrophosphatase, 1.2 mM GlcN-1-P (III) and approximately 4.8 mg of His6PtmE. The large-scale enzymatic synthesis of GDP-GlcNAc was performed similar to that above, except the scale was increased five-fold and GlcNAc-1-P was used in place of GlcN-1-P (III). Assessment of His6PtmE substrate specificity was accomplished using 9 reactions, 80 μl each, containing 50 mM Tris pH 7.5, 2 mM MgCl2, 50 μg His6PtmE, and various combinations of 10 mM sugar-1-P (GalN-1-P, GlcN-1-P or GlcNAc-1-P) and 0.2 mM NTP (CTP, GTP, or TTP). Conversion of GDP-GlcN to GDP-GlcNAc. The His6GlmU reaction was performed using 1 mM GDP-GlcN (IV), 1.2 mM acetyl-CoA and His6GlmU in 25 mM sodium phosphate pH 7.8, 25 mM NaCl, 10 mM β-mercaptoethanol. In addition, a control reaction was performed containing 1 mM GlcN-1-P (III) instead of IV. Biosynthesis of legionaminic acid from GDP-GlcNAc. The stepwise enzymatic synthesis of intermediates or products was accomplished in 2 stages (V→VI→VII→VIII, and then VIII→IX→X) using 1 mM of V, 0.5 mM NAD, 0.8 mM PLP, 8 mM L-Glu, 1.2 mM acetyl-CoA, 1.2 mM PEP, LegBHis6, His6LegC, His6LegH, His6LegG, and His6LegI as appropriate, in 25 mM sodium phosphate pH 7.3, 25 mM NaCl. Assessment of His6LegG activity involved monitoring the reaction kinetics by ^1H NMR (see NMR spectroscopy) for 75 min using 0.75 mM GDP-2,4-diacetamido-2,4,6-trideoxy-α-D-Glc (VIII), 4 μg His6LegG in 200 μl of 25 mM sodium phosphate pH 7.3, 25 mM NaCl at 25° C. In addition, the substrate flexibility of His6LegG was assessed using a 300 μl reaction containing 40 μg His6LegG, 25 mM sodium phosphate pH 7.3, 25 mM NaCl, and 0.75 mM UDP-2,4-diacetamido-2,4,6-trideoxy-α-D-Glc, with incubation at 37° C. for 1.5 h, and then overnight at 25° C. Biosynthesis of CMP-legionaminic acid. The CMP-activation of legionaminic acid (X→XI) was performed using a 20 ml reaction containing approximately 0.2 mM of X, 50 mM MgCl2, 3 mM CTP, and 15 mg of LegFHis6 in 25 mM sodium phosphate pH 7.8, 25 mM NaCl, with incubation at 37° C. for 5 h, and then 25° C. for 72 h. Metabolite purification. Typically, reactions were passed through an Amicon Ultra-15 (10,000 molecular weight cut-off) or Ultra-4 (5,000 molecular weight cut-off) filter membrane before analysis. As required, NDP-sugar preparations (GDP-Glc, GDP-GlcN, GDP-GlcNAc, CDP-GlcNAc, TDP-GlcNAc, and CMP-Leg) were lyophilized and desalted/purified using a Superdex Peptide 10/300 GL (Amersham Biosciences) column in 25 mM ammonium bicarbonate, pH 7.9. For further purity, the NDP-sugar samples above were subjected to anion-exchange chromatography (Mono Q 4.6/100 PE, Amersham Biosciences) using ammonium bicarbonate pH 7.9. Quantification of NDP-sugar preparations was determined using the molar extinction coefficients of CMP (ε260=7,400), GDP (ε260=11,500), TDP (ε260=8,700), and UDP (ε260=10,000).
CE analysis was performed using either a P/ACE 5510 or P/ACE MDQ system (Beckman Instruments, Mississauga, Ont) with diode array detection. The capillaries were bare silica 50 μm×50 cm, with a detector at 50 cm, and the running buffer was 25 mM sodium tetraborate pH 9.4. Samples were introduced by pressure injection for 6 sec, and the separation was performed at 18 kV for 20 min. Peak integration was done using the Beckman P/ACE station software.

[3] = tested on: LegH (Cj1298, N-acetyltransferase); assay: LegH N-acetyltransferase reaction; type: biochemical, Campylobacter jejuni 11168; conditions: acetyl-CoA
Method: (§1) Enzymatic reactions were performed for 4.5 h at 37° C., and then overnight at 25° C., with approximately 200 μg ml^−1 respective protein concentration using chemicals from Sigma (unless otherwise indicated). GDP-glucosamine biosynthesis. The ‘one-pot’ enzymatic synthesis of GDP-GlcN from Fru-6-P (I→IV) was accomplished using a 3 ml reaction containing His6PtmF, PtmAHis6, PgmLHis6, His6PtmE, 5 mM Fru-6-P (I), 10 mM L-Gln, 1 mM DTT, 5 mM MgCl2, 0.8 U ml^−1 pyrophosphatase, and 2.5 mM GTP in 25 mM Tris pH 7.5. Large-scale enzymatic synthesis of GDP-GlcN (IV) was accomplished using a 12 ml reaction containing 50 mM Tris pH 7.5, 1 mM GTP, 1 mM MgCl2, 0.8 U ml^−1 pyrophosphatase, 1.2 mM GlcN-1-P (III) and approximately 4.8 mg of His6PtmE. The large-scale enzymatic synthesis of GDP-GlcNAc was performed similar to that above, except the scale was increased five-fold and GlcNAc-1-P was used in place of GlcN-1-P (III). […] In addition, the substrate flexibility of His6LegG was assessed using a 300 μl reaction containing 40 μg His6LegG, 25 mM sodium phosphate pH 7.3, 25 mM NaCl, and 0.75 mM UDP-2,4-diacetamido-2,4,6-trideoxy-α-D-Glc, with incubation at 37° C. for 1.5 h, and then overnight at 25° C. […] Quantification of NDP-sugar preparations was determined using the molar extinction coefficients of CMP (ε260=7,400), GDP (ε260=11,500), TDP (ε260=8,700), and UDP (ε260=10,000). […]

[4] = molecular target: T2, PglD (N-acetyltransferase) (Campylobacter jejuni subsp. jejuni serotype O:2, UniProt Q0P9D1); assay: PglD N-acetyltransferase reaction; type: biochemical; conditions: acetyl-CoA
T2 construct: His6 (C); made in house; host or cells: E. coli BL21[DE3]
T2 sequence (Q0P9D1 whole entry): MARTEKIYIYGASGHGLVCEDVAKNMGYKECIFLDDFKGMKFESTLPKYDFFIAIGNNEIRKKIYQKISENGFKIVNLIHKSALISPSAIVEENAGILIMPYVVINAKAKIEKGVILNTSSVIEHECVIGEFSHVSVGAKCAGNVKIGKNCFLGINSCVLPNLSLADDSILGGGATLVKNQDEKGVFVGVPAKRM

[5] = molecular target: T3, His6GlmU (Cj0821, N-acetyltransferase) (Campylobacter jejuni subsp. jejuni serotype O:2, UniProt Q9PPA2); assay: His6GlmU N-acetylation reaction (CE-MS); type: biochemical, Campylobacter jejuni 11168; conditions: 1 mM substrate, 1.2 mM acetyl-CoA
T3 construct: made in house; host or cells: E. coli BL21[DE3]
T3 sequence (Q9PPA2 whole entry): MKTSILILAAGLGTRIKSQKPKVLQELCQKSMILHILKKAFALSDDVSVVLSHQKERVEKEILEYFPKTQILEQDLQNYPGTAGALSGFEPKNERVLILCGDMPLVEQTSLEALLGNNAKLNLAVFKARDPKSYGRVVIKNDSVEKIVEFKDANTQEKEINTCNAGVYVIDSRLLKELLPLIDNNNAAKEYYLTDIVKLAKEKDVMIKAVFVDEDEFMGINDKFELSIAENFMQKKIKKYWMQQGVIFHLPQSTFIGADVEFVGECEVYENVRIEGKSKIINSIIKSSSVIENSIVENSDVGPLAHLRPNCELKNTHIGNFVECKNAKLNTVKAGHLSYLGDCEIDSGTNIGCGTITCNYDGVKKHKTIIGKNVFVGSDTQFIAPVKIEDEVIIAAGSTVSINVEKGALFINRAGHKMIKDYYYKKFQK
Method: as §1

[6] = tested on: LegC (Cj1320, PLP-dependent aminotransferase); assay: LegC aminotransferase reaction; type: biochemical, Campylobacter jejuni 11168; conditions: L-Glu
Method: as §1

CC(=O)N[C@H]1[C@@H](OP(=O)(O)OP(=O)(O)OC[C@H]2O[C@@H](n3cnc4c(=O)[nH]c(N)nc43)[C@H](O)[C@@H]2O)O[C@H](CO)[C@@H](O)[C@@H]1O [V, GDP-N-acetyl-α-D-glucosamine]
LegG turnover of substrate assessed by CE [1]: moderate efficiency
LegB C4,6 dehydration of substrate ([2]; NAD+ added exogenously): efficient turnover
LegB C4,6 dehydration of substrate ([2]; reaction with substrate and LegB only, no exogenous NAD(P)+): failed

CC(=O)NC1C(OP(=O)(O)OP(=O)(O)OCC2OC(n3cnc4c(=O)[nH]c(N)nc43)C(O)C2O)OC(C)C(N)C1O [VII, GDP-4-amino-4,6-dideoxy-N-acetyl-α-D-glucosamine]
LegH conversion of VII to VIII [3]: 100%
PglD N-acetyltransfer of substrate [4]: able to catalyze N-acetyltransfer

Nc1nc2c(ncn2C2OC(COP(=O)(O)OP(=O)(O)OC3OC(CO)C(O)C(O)C3N)C(O)C2O)c(=O)[nH]1 [IV, GDP-α-D-glucosamine]
GlmU N-acetylation of substrate (conversion of IV to V) [5]: not to completion
LegB reaction product formation ([2]; in the presence or absence of NAD(P)+): did not yield discernable product

CC(=O)N[C@H]1[C@@H](OP(=O)(O)OP(=O)(O)OC[C@H]2O[C@@H](n3cnc4c(=O)[nH]c(N)nc43)[C@H](O)[C@@H]2O)O[C@H](C)C(=O)[C@@H]1O [VI, GDP-2-acetamido-2,6-dideoxy-α-D-xylo-hexos-4-ulose]
LegC aminotransfer of substrate [6]: efficient aminotransfer
